Values after ≈ are worked out from the molar mass of the structure shown. Active and inactive are the calls of the source. The rule behind the calls is not given here.
Assays:
Staphylococcus aureus [1] = assay: Antibacterial activity against Staphylococcus aureus ATCC 29213 by CLSI protocol based assay; format: functional
[2] = test system: Stenotrophomonas maltophilia; assay: Antibacterial activity against Stenotrophomonas maltophilia ATCC 17808 by CLSI protocol based assay; format: functional
Escherichia coli = assay: Antibacterial activity against Escherichia coli ATCC 25922 by CLSI protocol based assay; format: functional
[3] = Hemolytic activity in sheep RBC; format: toxicity, cell-based, Ovis aries, Erythrocyte; details: sheep red blood cells (erythrocytes)
Enterococcus faecalis = assay: Antibacterial activity against Enterococcus faecalis ATCC 29212 by CLSI protocol based assay; format: functional
Staphylococcus aureus [4] = assay: Resistance development in 20 day passaged Staphylococcus aureus assessed as cefotaxime antibacterial activity; format: functional, organism-based
Staphylococcus aureus [5] = assay: Drug resistance, ratio of MIC for Staphylococcus aureus measured after 20 days to MIC for Staphylococcus aureus; format: functional
Staphylococcus aureus [6] = assay: Resistance development in 20 day passaged Staphylococcus aureus assessed as levofloxacin antibacterial activity; format: functional, organism-based
Staphylococcus aureus [7] = assay: Resistance development in 20 day passaged Staphylococcus aureus assessed as ciprofloxacin antibacterial activity; format: functional, organism-based
Staphylococcus aureus [8] = assay: Resistance development in 20 day passaged Staphylococcus aureus assessed as ampicillin antibacterial activity; format: functional, organism-based
Staphylococcus aureus [9] = assay: Antibacterial activity against Staphylococcus aureus measured after 20 days; format: functional; details: 480 h, time 20 day
Staphylococcus aureus [10] = assay: Drug resistance, ratio of MIC for Staphylococcus aureus measured after 7 days to MIC for Staphylococcus aureus; format: functional
Staphylococcus aureus [11] = assay: Resistance development in 20 day passaged Staphylococcus aureus assessed as beta-lactam antibacterial activity; format: functional, organism-based
Staphylococcus aureus [12] = assay: Antibacterial activity against Staphylococcus aureus assessed as inhibition of metabolic activity at MIC; format: functional
Staphylococcus aureus [13] = assay: Antibacterial activity against Staphylococcus aureus assessed as reduction in metabolic activity at sub-MIC; format: functional, organism-based
Cell membrane [14] = assay: Induction of cell membrane damage in Staphylococcus aureus assessed as increase in protein leakage; format: cell membranes
Cell membrane [15] = assay: Induction of inner membrane permeabilization in Staphylococcus aureus assessed as increase in fluorescence intensity at 16 microg/ml by PI staining based analysis; format: cell membranes; details: dose 16.0 µg/ml
Cell membrane [16] = assay: Induction of cell membrane depolarization in Staphylococcus aureus assessed as increase in fluorescence intensity at 16 microg/ml by DiSC3(5) dye based assay; format: cell membranes; details: dose 16.0 µg/ml
Staphylococcus aureus [17] = assay: Antibacterial activity against methicillin resistant Staphylococcus aureus clinical isolates assessed as 50% inhibition of bacterial growth; format: functional
Staphylococcus aureus [18] = assay: Antibacterial activity against early exponential growth phase Staphylococcus aureus assessed as reduction in bacterial colony at 8 times of MIC measured at 8 to 24 hrs by time-kill kinetics assay; format: functional, organism-based; details: time 8-24 hrs
Staphylococcus aureus [19] = assay: Post-antibiotic effect against Staphylococcus aureus at 1 times of MIC incubated for 1 hrs; format: functional
Staphylococcus aureus [20] = assay: Post-antibiotic effect against Staphylococcus aureus at 4 times of MIC incubated for 1 hrs; format: functional
Staphylococcus aureus [21] = assay: Antibacterial activity against Staphylococcus aureus measured after 3 to 6 hrs in presence of 50% plasma; format: functional, organism-based; details: time 3-6 hrs
Staphylococcus aureus [22] = assay: Antibacterial activity against methicillin resistant Staphylococcus aureus; format: functional
[23] = Hemolytic activity in sheep RBC assessed as hemolysis rate at 1280 microg/ml relative to control; format: toxicity, cell-based, Ovis aries, Erythrocyte; details: sheep red blood cells (erythrocytes), dose 1280 µg/ml, read-out: Activity

Row | Molecule | MIC (Staphylococcus aureus [1]) | MIC [2] | MIC (Escherichia coli) | HC50 [3] | MIC (Enterococcus faecalis) | other results
1 | CCCCCCCCNC(=O)c1cc[n+](CC2=C(C(=O)[O-])N3C(=O)[C@@H](NC(=O)/C(=N\OC(C)(C)C(=O)O)c4csc(N)n4)[C@H]3SC2)cc1.O=C(O)C(F)(F)F | 32 µg/mL | 64 µg/mL | 32 µg/mL | > 1280 µg/mL | > 128 µg/mL | –
2 | CCn1cc(C(=O)O)c(=O)c2cc(F)c(N3CCNCC3)cc21 [NORFLOXACIN] | – | – | – | – | – | Activity (Staphylococcus aureus [4]): inactive; Ratio (Staphylococcus aureus [5]): 64; Activity (Staphylococcus aureus [6]): inactive; Activity (Staphylococcus aureus [7]): inactive; Activity (Staphylococcus aureus [8]): inactive; MIC (Staphylococcus aureus [9]): 64 µg/mL (≈ 200 µM); Ratio (Staphylococcus aureus [10]): 16; Activity (Staphylococcus aureus [11]): inactive
3 | CCCCCCCCNC(=O)c1ccc[n+](CC2=C(C(=O)[O-])N3C(=O)[C@@H](NC(=O)/C(=N\OC(C)(C)C(=O)O)c4csc(N)n4)[C@H]3SC2)c1.O=C(O)C(F)(F)F | 32 µg/mL | 16 µg/mL | 16 µg/mL | > 1280 µg/mL | 128 µg/mL | –
4 | CCCCNC(=O)c1cc[n+](CC2=C(C(=O)[O-])N3C(=O)[C@@H](NC(=O)/C(=N\OC)c4csc(N)n4)[C@H]3SC2)cc1.O=C(O)C(F)(F)F | 4 µg/mL | 1 µg/mL | 1 µg/mL | > 1280 µg/mL | 4 µg/mL | –
5 | CCCCCCCCCCNC(=O)c1cc[n+](CC2=C(C(=O)[O-])N3C(=O)[C@@H](NC(=O)/C(=N\OC(C)(C)C(=O)O)c4csc(N)n4)[C@H]3SC2)cc1.O=C(O)C(F)(F)F | 32 µg/mL | 128 µg/mL | 64 µg/mL | > 1280 µg/mL | > 128 µg/mL | –
6 | C[C@@H](O)[C@H]1C(=O)N2C(C(=O)O)=C(S[C@@H]3CN[C@H](C(=O)N(C)C)C3)[C@H](C)[C@H]12 [MEROPENEM] | – | 0.031 µg/mL (≈ 0.0808 µM) | 0.031 µg/mL (≈ 0.0808 µM) | > 1280 µg/mL | – | –
7 | CCCCNC(=O)c1ccc[n+](CC2=C(C(=O)[O-])N3C(=O)[C@@H](NC(=O)/C(=N\OC)c4csc(N)n4)[C@H]3SC2)c1.O=C(O)C(F)(F)F | 2 µg/mL | 0.5 µg/mL | 0.5 µg/mL | > 1280 µg/mL | 4 µg/mL | –
8 | CCCCCCNC(=O)c1ccc[n+](CC2=C(C(=O)[O-])N3C(=O)[C@@H](NC(=O)/C(=N\OC(C)(C)C(=O)O)c4csc(N)n4)[C@H]3SC2)c1.O=C(O)C(F)(F)F | 32 µg/mL | 4 µg/mL | 4 µg/mL | > 1280 µg/mL | 128 µg/mL | –
9 | CC[C@H](C)[C@H](NC(=O)CN)C(=O)NCC(=O)N[C@@H](C)C(=O)N[C@H](C(=O)N[C@@H](CC(C)C)C(=O)N[C@@H](CCCCN)C(=O)N[C@H](C(=O)N[C@@H](CC(C)C)C(=O)N[C@H](C(=O)N[C@H](C(=O)NCC(=O)N[C@@H](CC(C)C)C(=O)N1CCC[C@H]1C(=O)N[C@@H](C)C(=O)N[C@@H](CC(C)C)C(=O)N[C@H](C(=O)N[C@@H](CO)C(=O)N[C@@H](Cc1c[nH]c2ccccc12)C(=O)N[C@H](C(=O)N[C@@H](CCCCN)C(=O)N[C@@H](CCCNC(=N)N)C(=O)N[C@@H](CCCCN)C(=O)N[C@@H](CCCNC(=N)N)C(=O)N[C@@H](CCC(N)=O)C(=O)N[C@@H](CCC(N)=O)C(N)=O)[C@@H](C)CC)[C@@H](C)CC)[C@@H](C)O)[C@@H](C)O)C(C)C)C(C)C [MELITTIN] | – | 8 µg/mL (≈ 2.81 µM) | – | – | 2 µg/mL (≈ 0.703 µM) | inhibition (INH) (Staphylococcus aureus [12]): ~100%; Activity (Staphylococcus aureus [13]): Active; Activity (Cell membrane [14]): Active; Activity (Cell membrane [15]): Active; Activity (Cell membrane [16]): Active
10 | CC(C)(O/N=C(\C(=O)N[C@@H]1C(=O)N2C(C(=O)[O-])=C(C[n+]3ccccc3)CS[C@H]12)c1csc(N)n1)C(=O)O [CEFTAZIDIME] | 16 µg/mL (≈ 29.3 µM) | 0.063 µg/mL (≈ 0.115 µM) | 0.063 µg/mL (≈ 0.115 µM) | > 1280 µg/mL | 128 µg/mL (≈ 234 µM) | –
11 | CCCCNC(=O)c1ccc[n+](CC2=C(C(=O)[O-])N3C(=O)[C@@H](NC(=O)/C(=N\OC(C)(C)C(=O)O)c4csc(N)n4)[C@H]3SC2)c1.O=C(O)C(F)(F)F | 32 µg/mL | 0.5 µg/mL | 1 µg/mL | > 1280 µg/mL | 128 µg/mL | –
12 | CC[C@H]1OC(=O)[C@H](C)[C@@H](O[C@H]2C[C@@](C)(OC)[C@@H](O)[C@H](C)O2)[C@H](C)[C@@H](O[C@@H]2O[C@H](C)C[C@H](N(C)C)[C@H]2O)[C@](C)(O)C[C@@H](C)C(=O)[C@H](C)[C@@H](O)[C@]1(C)O [ERYTHROMYCIN] | – | – | – | – | – | MIC50 (Staphylococcus aureus [17]): > 128 µg/mL
13 | CN[C@H](CC(C)C)C(=O)N[C@H]1C(=O)N[C@@H](CC(N)=O)C(=O)N[C@H]2C(=O)N[C@H]3C(=O)N[C@H](C(=O)N[C@H](C(=O)O)c4cc(O)cc(O)c4-c4cc3ccc4O)[C@H](O)c3ccc(c(Cl)c3)Oc3cc2cc(c3O[C@@H]2O[C@H](CO)[C@@H](O)[C@H](O)[C@H]2O[C@H]2C[C@](C)(N)[C@H](O)[C@H](C)O2)Oc2ccc(cc2Cl)[C@H]1O [VANCOMYCIN] | – | – | – | > 1280 µg/mL | 2 µg/mL (≈ 1.38 µM) | Activity (Staphylococcus aureus [18]): Active; PAE (Staphylococcus aureus [19]): 0.67 h; PAE (Staphylococcus aureus [20]): 1.37 h; Activity (Cell membrane [16]): inactive; Activity (Staphylococcus aureus [21]): Active
14 | CCCCCCCCNC(=O)c1cc[n+](CC2=C(C(=O)O)N3C(=O)[C@@H](NC(=O)/C(=N\OC)c4csc(N)n4)[C@H]3SC2)cc1.O=C([O-])C(F)(F)F | 1 µg/mL | 4 µg/mL | 8 µg/mL | > 1280 µg/mL | 2 µg/mL | –
15 | CCCCCCN(Cc1ccc(-c2ccc(CN(CCCCCC)C(=O)[C@@H](N)CCCCN)cc2)cc1)C(=O)[C@@H](N)CCCCN.O=C(O)C(F)(F)F.O=C(O)C(F)(F)F.O=C(O)C(F)(F)F.O=C(O)C(F)(F)F | – | – | – | – | – | MIC (Staphylococcus aureus [22]): 3.1 µg/mL
16 | CCCCCCNC(=O)c1cc[n+](CC2=C(C(=O)[O-])N3C(=O)[C@@H](NC(=O)/C(=N\OC)c4csc(N)n4)[C@H]3SC2)cc1.O=C(O)C(F)(F)F | 2 µg/mL | 2 µg/mL | 2 µg/mL | > 1280 µg/mL | 4 µg/mL | –
17 | CCCCCCCCCCNC(=O)c1cc[n+](CC2=C(C(=O)[O-])N3C(=O)[C@@H](NC(=O)/C(=N\OC)c4csc(N)n4)[C@H]3SC2)cc1.O=C(O)C(F)(F)F | 1 µg/mL | 8 µg/mL | 8 µg/mL | > 1280 µg/mL | 4 µg/mL | –
18 | GENTAMICIN | – | – | – | – | – | Activity (Cell membrane [15]): inactive; Activity (Cell membrane [16]): inactive
19 | CCCCCCCCCCNC(=O)c1ccc[n+](CC2=C(C(=O)[O-])N3C(=O)[C@@H](NC(=O)/C(=N\OC(C)(C)C(=O)O)c4csc(N)n4)[C@H]3SC2)c1.O=C(O)C(F)(F)F | 32 µg/mL | 64 µg/mL | 32 µg/mL | > 1280 µg/mL | 128 µg/mL | –
20 | CCCCNC(=O)c1cc[n+](CC2=C(C(=O)[O-])N3C(=O)[C@@H](NC(=O)/C(=N\OC(C)(C)C(=O)O)c4csc(N)n4)[C@H]3SC2)cc1.O=C(O)C(F)(F)F | 64 µg/mL | 1 µg/mL | 4 µg/mL | > 1280 µg/mL | 128 µg/mL | –
21 | CO/N=C(\C(=O)N[C@@H]1C(=O)N2C(C(=O)[O-])=C(COC(C)=O)CS[C@H]12)c1csc(N)n1.[Na+] [CEFOTAXIME SODIUM] | 1 µg/mL | 2 µg/mL | 2 µg/mL | > 1280 µg/mL | 16 µg/mL | inhibition (INH) (Staphylococcus aureus [12]): ~100%; Activity (Staphylococcus aureus [13]): Active
22 | CCCCCCNC(=O)c1cc[n+](CC2=C(C(=O)[O-])N3C(=O)[C@@H](NC(=O)/C(=N\OC(C)(C)C(=O)O)c4csc(N)n4)[C@H]3SC2)cc1.O=C(O)C(F)(F)F | 32 µg/mL | 8 µg/mL | 32 µg/mL | > 1280 µg/mL | 64 µg/mL | –
23 | CCCCCCCCCCNC(=O)c1ccc[n+](CC2=C(C(=O)[O-])N3C(=O)[C@@H](NC(=O)/C(=N\OC)c4csc(N)n4)[C@H]3SC2)c1.O=C(O)C(F)(F)F | 0.5 µg/mL | 8 µg/mL | 8 µg/mL | > 1280 µg/mL | 4 µg/mL | hemolysis at 1280 microg/ml [23]: 12.7%
24 | CCCCCCNC(=O)c1ccc[n+](CC2=C(C(=O)[O-])N3C(=O)[C@@H](NC(=O)/C(=N\OC)c4csc(N)n4)[C@H]3SC2)c1.O=C(O)C(F)(F)F | 2 µg/mL | 2 µg/mL | 4 µg/mL | > 1280 µg/mL | 4 µg/mL | –

Reference: ChEMBL document CHEMBL5506000, “Design, synthesis and antibacterial evaluation of low toxicity amphiphilic-cephalosporin derivatives” (Eur J Med Chem, 2024)
